Assay [1] has as its system HCT116. The conditions noted are these: 72 h. The protocol:
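HCT116 control and MTA1-KO (CRISPR) HCT116 cells were seeded in 384-well plates (800 cells/well), treated 16 h later with 237 metabolism-related anticancer drugs at five doses (10 uM, 2 uM, 400 nM, 80 nM, 16 nM) for 72 h, two replicates; viability by CCK8. Values are % inhibition of viability relative to untreated cells, plus fitted IC50.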

The subject of assay [2] is HCT116. The assay can be described thus: viability inhibition vs untreated; higher = more cytotoxic. Particulars: 72 h.

Where a name gives a salt, the structure may show the parent alone.

For `O=C1CC(c2c[nH]c3ccc(F)cc23)C(=O)N1` (centres undefined), the IC50 in assay [1] (genotype: MTA1-KO) and in assay [1] (genotype: control) was over 10 µM in each case. In addition, the viability inhibition came out at 7.19% in assay [2] (genotype: MTA1-KO, 16 nM); 3.94% in assay [2] (genotype: MTA1-KO, 80 nM); 6.53% in assay [2] (genotype: MTA1-KO, 400 nM); 3.06% in assay [2] (genotype: MTA1-KO, 2000 nM); 34% in assay [2] (genotype: MTA1-KO, 10000 nM); 15.5% in assay [2] (genotype: control, 16 nM). Besides, the viability inhibition in assay [2] (genotype: control, 80 nM) was -12.9%; in assay [2] (genotype: control, 400 nM), -15.6%; in assay [2] (genotype: control, 2000 nM) it was -1.97%; in assay [2] (genotype: control, 10000 nM), 11.6%.

For `COc1cc(Nc2nc3ccccc3nc2NS(=O)(=O)c2ccc(NC(=O)c3ccc(C)c(OC)c3)cc2)cc(OC)c1` [Voxtalisib Analogue], the IC50 in assay [1] (genotype: MTA1-KO) and in assay [1] (genotype: control) was over 10 µM each time. Also, the viability inhibition in assay [2] (genotype: MTA1-KO, 16 nM) was -13.9%; in assay [2] (genotype: MTA1-KO, 80 nM), -7.35%; in assay [2] (genotype: MTA1-KO, 400 nM), -17%; in assay [2] (genotype: MTA1-KO, 2000 nM) it was -3.38%; in assay [2] (genotype: MTA1-KO, 10000 nM), 24.9%; in assay [2] (genotype: control, 16 nM) it was -7.04%. Besides, the viability inhibition in assay [2] (genotype: control, 80 nM) was -8.31%; in assay [2] (genotype: control, 400 nM), -4.56%; in assay [2] (genotype: control, 2000 nM), -7.36%; in assay [2] (genotype: control, 10000 nM), 5.96%.

`N#CCCCSC(=N)N` [Kevetrin hydrochloride]: the values for the half-inhibitory concentration (IC50) in assay [1] (genotype: MTA1-KO) and in assay [1] (genotype: control) were 2.38 µM and over 10 µM, respectively. Besides, the viability inhibition came out at 12.4% in assay [2] (genotype: MTA1-KO, 16 nM); 15% in assay [2] (genotype: MTA1-KO, 80 nM); 12.2% in assay [2] (genotype: MTA1-KO, 400 nM); 33.3% in assay [2] (genotype: MTA1-KO, 2000 nM); 57.5% in assay [2] (genotype: MTA1-KO, 10000 nM); 16.1% in assay [2] (genotype: control, 16 nM). For the same molecule, the viability inhibition in assay [2] (genotype: control, 80 nM) is 19.7%; in assay [2] (genotype: control, 400 nM), 23%; in assay [2] (genotype: control, 2000 nM), -4.7%; in assay [2] (genotype: control, 10000 nM), 23.9%.

Take `CCCC(=O)O[C@]1(C(=O)CO)CC[C@H]2[C@@H]3CCC4=CC(=O)CC[C@]4(C)[C@H]3[C@@H](O)C[C@@]21C` [Hydrocortisone butyrate]: the IC50 in assay [1] (genotype: MTA1-KO) and in assay [1] (genotype: control) was over 10 µM in each case. The viability inhibition in assay [2] (genotype: MTA1-KO, 16 nM) is -3.78%; in assay [2] (genotype: MTA1-KO, 80 nM), -0.209%; in assay [2] (genotype: MTA1-KO, 400 nM), -6.9%; in assay [2] (genotype: MTA1-KO, 2000 nM) it was -15.3%; in assay [2] (genotype: MTA1-KO, 10000 nM), 17.3%; in assay [2] (genotype: control, 16 nM), -10.8%. Further, the viability inhibition in assay [2] (genotype: control, 80 nM) was -15%; in assay [2] (genotype: control, 400 nM), -3.07%; in assay [2] (genotype: control, 2000 nM), -16.7%; in assay [2] (genotype: control, 10000 nM) it was 41.3%.

`N[C@@H](CSCCB(O)O)C(=O)O` [BEC HCl]: the IC50 is 8.12 µM in assay [1] (genotype: MTA1-KO) and over 10 µM in assay [1] (genotype: control). Further, the viability inhibition is 7.68% in assay [2] (genotype: MTA1-KO, 16 nM); -6.82% in assay [2] (genotype: MTA1-KO, 80 nM); -3.32% in assay [2] (genotype: MTA1-KO, 400 nM); 5.74% in assay [2] (genotype: MTA1-KO, 2000 nM); 56.8% in assay [2] (genotype: MTA1-KO, 10000 nM); -17.3% in assay [2] (genotype: control, 16 nM). Further, the viability inhibition in assay [2] (genotype: control, 80 nM) is -19%; in assay [2] (genotype: control, 400 nM), -3.82%; in assay [2] (genotype: control, 2000 nM), -14%; in assay [2] (genotype: control, 10000 nM), -7.11%.

In the case of `CO[C@H]1C[C@@H]2CC[C@@H](C)[C@@](O)(O2)C(=O)C(=O)N2CCCC[C@H]2C(=O)O[C@H]([C@H](C)C[C@@H]2CC[C@@H](OCCO)[C@H](OC)C2)CC(=O)[C@H](C)/C=C(\C)[C@@H](O)[C@@H](OC)C(=O)[C@H](C)C[C@H](C)/C=C/C=C/C=C/1C` [Everolimus], the IC50 in assay [1] (genotype: MTA1-KO) and in assay [1] (genotype: control) was over 10 µM each time. In addition, the viability inhibition in assay [2] (genotype: MTA1-KO, 16 nM) is -19%; in assay [2] (genotype: MTA1-KO, 80 nM), -24.2%; in assay [2] (genotype: MTA1-KO, 400 nM) it was -24.2%; in assay [2] (genotype: MTA1-KO, 2000 nM) it was -22.2%; in assay [2] (genotype: MTA1-KO, 10000 nM), -6.06%; in assay [2] (genotype: control, 16 nM), 5.54%. Also, the viability inhibition in assay [2] (genotype: control, 80 nM) was determined as 0.73%; in assay [2] (genotype: control, 400 nM), 1.76%; in assay [2] (genotype: control, 2000 nM), 3.41%; in assay [2] (genotype: control, 10000 nM), 25.7%.

Turning to `NN=C(N)N` [Aminoguanidine hydrochloride], the IC50 in assay [1] (genotype: MTA1-KO) and in assay [1] (genotype: control) was over 10 µM each time. Further, the viability inhibition is -22% in assay [2] (genotype: MTA1-KO, 16 nM); -27.7% in assay [2] (genotype: MTA1-KO, 80 nM); -23.9% in assay [2] (genotype: MTA1-KO, 400 nM); -10.8% in assay [2] (genotype: MTA1-KO, 2000 nM); -13.7% in assay [2] (genotype: MTA1-KO, 10000 nM); -13.6% in assay [2] (genotype: control, 16 nM). In addition, the viability inhibition in assay [2] (genotype: control, 80 nM) was -11.1%; in assay [2] (genotype: control, 400 nM) it was -12.3%; in assay [2] (genotype: control, 2000 nM), -13.1%; in assay [2] (genotype: control, 10000 nM), -5.39%.

Usually IC50 stands for the concentration that gives 50% inhibition.

The record behind these values is the supplement of paper PMC10477900.
